Data set [1] has as its system ERK. Briefly: ERK activation in primary rat neostriatal neuron cultures. It counts as cell-based. Here is the method: Primary Neuronal Cultures: The substantia nigra or striatal region is dissected from 4 day-old Sprague-Dawley rats and incubated in minimum essential medium (MEM) containing 20 U/ml papain for 2 hours at 37° C. The tissue is then triturated using fire-polished Pasteur pipettes in MEM supplemented with 10% fetal bovine serum, 0.45% glucose, […] insulin, 0.5 mM glutamine, 100 U/ml penicillin, and 100 μg/ml streptomycin. Cells are plated on 18 mm diameter poly-D-lysine-coated glass coverslips (Fisher 12-545-84 18cir-1D) at a density of 75,000 cells per coverslip for immunofluorescence imaging or in 12-well or 6-well tissue culture plates for immunoblotting studies. […]
Cell stimulation, immunoblotting, and immunoprecipitation: Cells or neurons are grown in 6-well or 12-well plates to 80-90% confluence. […] After centrifugation (14,000×g at 4° C. for 15 minutes), the supernatant is collected and the protein concentration is measured and adjusted using RIPA^+ buffer. […] The proteins are transferred to PVDF membrane (Millipore), detected with the primary antibodies (including anti-active ERK; anti-p-Tyr clone 4G10, Upstate; anti-TH; anti-DAT, sigma, anti-β-tubulin, etc.) and visualized with the SuperSignal™ West Pico chemiluminescent kit (Pierce Biotechnology, Rockford, Ill.). The intensity of bands is quantified using ImageQuant™ 5.2 (Amersham). […]

The nature of data set [2]: Stability of A9 in solution. It counts as physicochemical. As to the method: (§1) 5. Physical properties: A9 stock can be dissolved in ethanol, methylene chloride, or DMSO as high as 25 mg/ml. The stock of A9 can then be diluted in water or saline. The final concentration in saline can reach 10 mg/ml according to our experience. A9 is very stable in organic solvents and keeps its activity (indicated by its ability to stimulate ERK activation in NS20Y cells, data not shown) for 6 months at room temperature. […] In saline, its half-life was reported to be 4 days at 37° C. (Golumb, Atherosclerosis 125:171-182, 1996). […] A similar evaluation of the chemical nature of any tyrphostin can be used to determine if it is of use to induce neurite outgrowth and regeneration in a subject.

The next data set can be described thus: Solubility of A9 stock. Type of data set: physicochemical. As to the method: as §1
Data set [3] relates to ERK. Briefly: ERK activation in NS20Y neuroblastoma cells, immunoblotting for dually phosphorylated ERK. It counts as cell-based, mouse. The settings on record: dually phosphorylated ERK by immunoblotting. For orientation: In western blotting, separated proteins are transferred to a membrane and probed.
Data set [4] has as its system primary dopaminergic neuron cultures. Kind of data set: Neuroprotection against MPP+ in primary dopaminergic neuron cultures. It counts as cell-based, rat. Particulars: MPP+ 25 μM; A9 added before or after MPP+; TH staining. As to the method: Primary cultures of rat embryonic SNc neuron cultures were grown on treated 12-well plates (for dopamine uptake) or coverslips (for neuroprotection) for 10 days as described in the Examples section. In FIG. 6A, the neurons were treated with different concentrations of A9 for 6 days before dopamine uptake was measured. Data=mean±SD (n=3). In FIG. […] Half of the medium was changed with fresh A9 on day 14. The neurons were fixed on day 16 and stained for tyrosine hydroxylase (TH, green) and total-ERK (red). Images were captured with fluorescence microscopy at magnification×100.
The dopaminergic neurons that have been cultured on poly-D-lysine treated coverslips or 12-well cell culture plates for 10 days are treated with vehicle or A9 at 1 nM, 10 nM, 100 nM, or 1 μM for 7 days. […] Half of the medium is changed with fresh medium containing A9 at day 4. To test the involvement of ERK and PI3K, inhibitors (including PD98059, SL327, wortmannin, and LY294002) are added with A9. […] The amount of HSV used and the best time to do functional assays is determined. To count the TH-positive neurons, the neurons on coverslips are fixed, stained for both tyrosine hydroxylase (TH) and total-ERK (control) at the end of A9 treatment and imaged with a conventional or confocal fluorescence microscope. […]

“Also recorded” adds a separate entry of the source. Like-named read-outs stand apart in the source and are kept apart here.

Turning to `CC(C)(C)c1cc(C=C(C#N)C#N)cc(C(C)(C)C)c1O` [A9, tyrphostin A9], in the data set on ERK [1], the “A9-stimulated ERK activation” value is on record as “also observed”. For the same compound, the “Effect of repeated freeze/thaw cycles on activity” value in data set [2] (in organic solvents) is “do not affect its activity”. In addition, in data set [2] (room temperature, activity by ERK activation in NS20Y cells), the “Time for which activity is kept in organic solvents” value is 6 months. For the same compound, the solubility in the data set “Solubility of A9 stock” (aqueous with cosolvent or surfactant or cyclodextrin, kinetic from dmso stock, stock diluted in saline, read-out: Final concentration in saline) is ≥ 10 mg/mL; in the data set “Solubility of A9 stock” (organic solvent or mixture, in ethanol, methylene chloride, or DMSO, read-out: Solubility of stock), ≤ 25 mg/mL. Further, the ERK activation entry in the data set with ERK [3] is “robust activation of ERK; also recorded: stimulated ERK activation in NS20Y cells in a time (FIG. 2A) and dose (FIG. 2B)-dependent manner; also recorded: induced robust and sustained ERK activation”; in the data set on ERK [3] (listed as tyrphostin A9), “stimulated robust and sustained ERK activation in a time and dose-dependent manner”. Moreover, the “Protective effect against neurotoxin MPP+” value in data set [4] is given as “robust protective effect; also recorded: neuroprotection against MPP^+”.

Source of the values: patent US20090012179A1, “Use of Tyrphostins to Stimulate Neurite Outgrowth” (priority 2004, published 2009).
